Here are results for 25 compounds from article PMC12525849, “In Silico and RP HPLC Studies of Biologically Active 1,3,4-Thiadiazol-2-yl)-benzene-1,3-diols” (Molecules, 2025).

The structures appear in SMILES notation. Like-named read-outs stand apart in the source and are kept apart here.

A short description of data set [1]: RP HPLC on octadecyl (C-18/RP-18) column, buffer-MeOH pH 7.4, log kw by extrapolation. The class given is physicochemical. Particulars: C18 stationary phase; for log kw C-18: MeOH-buffer pH 7.4, extrapolated intercept; for S: slope of log k vs MeOH content, pH 7.4. The text has this: (§1) The retention factors of considered compounds were investigated using five different bonded stationary phases: octadecyl (RP-18), octyl (RP-8), cholesterol (Chol), phosphatidylcholine (IAM), and biphenyl (BPh). Water buffer–methanol mobile phases with pH 7.4 were used. The content of MeOH was varying and it depended on the type of compound and the stationary phase.
For the tested systems, linear relationships were obtained between the retention coefficient log k and the content of MeOH (%) in the mobile phase expressed by the Snyder–Soczewiński equation:log k = log kw + S (% organic modifier)(2) where: log kw—the intercept; S—the slope of regression curve.
Log kw values were estimated by the extrapolation method. Log kw and S parameters are presented in Figure 3, Table 2, and Tables S1–S5 in the Supplementary Materials. These parameters obtained by C-18, C-8, and IAM chromatography are commonly used as lipophilicity descriptors.
(§2) HPLC measurements for C-18, C-8, IAM, Chol, and BPh phases were carried out using a liquid chromatograph Knauer (Knauer, Berlin, Germany) with a single pump working in isocratic mode, a 20 µL simple injection valve, and a UV–visible detector (Knauer, Berlin, Germany) working at 280 nm at room temperature. The retention time of an unretained solute (t0) was determined by the injection of a small amount of citric acid dissolved in water. The mobile phase flow rate was 1 mL/min (0.35 mL/min for Chol). HPLC columns: C18—Eurosil Bioselect 300 × 4 mm, 5 μm; C8—Waters. Symetry 150 × 4.6 mm, 5 μm, 100 Ǻ; IAM—Rexchrom IAM.PC.DD2 100 × 4.6 mm, 12 μm; Chol—Cogent 4 UDC Cholesterol 150 × 2.1 mm, 4 μm; BPh—Kinetex Biphenyl 150 × 4.6 mm, 5 μm were applied.
(§3) Mobile phase for RP-18, RP-8, Chol, and BPh chromatography was composed using 20 mM acetic buffer/MeOH with respective MeOH concentration ranges (volume fractions: C18—from 0.5 to 0.99; C8—from 0.5 to 0.9; IAM—from 0.15 to 0.5; Chol: from 0.45 to 0.9; BPh: from 0.4 to 0.99) to obtain pH = 7.4. In the case of IAM chromatography, phosphate buffer was used. At least five consecutive retention times for five concentrations per every investigated compound for every chromatographic system were measured. Log k parameter was calculated as log k = log (tr−t0/t0), where tr = the retention time of the analyte; t0 = the retention time of an unretained compound.

Data set [2] in a line: Log D(7.4) determination from RP-18 measurements using a standard curve. The class given is physicochemical. Particulars: C18 (RP-18) HPLC column with MeOH-water mobile phase; calculated from standard curve (Equation 3) and log kw C18, pH 7.4. An excerpt:
C-18 chromatography was used to determine the distribution coefficient log D(7.4) of the tested compounds using a standard curve. It was constructed for the reference compounds with known experimental log D(7.4) values and studied chromatographically under the same conditions as the analyzed compounds [44] (Table 4). The obtained log kw values were plotted against the log D(7.4) based on BioLoom Database values taken from Andres et al. (Table S6 in the Supplementary Materials). […] In the case of analogues 7 and 14, these differences are the largest and they constitute about 17% and 13%, respectively (Table 4). This means that the obtained log kw values from the C18/MeOH-water (pH = 7.4) chromatographic system reflect the extraction values of log D(7.4) quite well. […] The analytical standards were purchased from Sigma Aldrich […], Darmstadt, Germany). The obtained log kw values from HPLC C-18 were plotted against the log D(7.4) based on BioLoom Database values taken from Andres et al. (Table S6 in the Supplementary Materials).

Data set [3] in a line: Comparison of retention (log kw) on RP-18, RP-8, Chol, IAM and BPh stationary phases. Particulars: for retention, in words: investigated stationary phases. In kind it is physicochemical.
Excerpt: as §1
The lowest log kw values can be observed for RP-18 and IAM stationary phases. For most compounds, log kw IAM values have similar values or are lower than those obtained for C18 stationary phase. […] On the octadecyl column the main contribution to retention comes from almost entirely hydrophobic interactions, when in the case of IAM phase there are additional mechanisms involved in interactions as ion pairing and hydrogen bonding. They can be either attractive or repulsive in nature. This depends on the structure of compound and pH.
as §2, §3

For data set [4] the following is noted: cited from earlier work.

`CCOC(=O)c1ccc(Nc2nnc(-c3ccc(O)cc3O)s2)cc1` [Compound 15]: in data set [1], the “log kw C-18” value is 3.238 and the S is given as −4.185. Further, the chromatographic logD (commonly lipophilicity estimated from chromatographic retention) in data set [2] is 3.45.
On to `Oc1ccc(-c2nnc(Nc3cccc4ccccc34)s2)c(O)c1` [Compound 16], for which, in data set [1], the “log kw C-18” value is 3.059 and the S is on record as −3.931. Further, the chromatographic logD in data set [2] is 3.21.
In the case of `Cn1c(=O)c2[nH]cnc2n(C)c1=O` [theophylline, reference compound], the “log kw C-18” value in data set [1] is given as 0.380.
Consider `Oc1ccc(-c2nnc(Nc3ccccc3)s2)c(O)c1` [Compound 11], for which, in data set [1], the “log kw C-18” value is 2.477 and the S is recorded as −3.66. Moreover, the chromatographic logD in data set [2] was 2.42. Also, the “retention, in words” value in data set [3] is reported as “relatively low retention factor values”.
As for `Cc1cccc(-c2nnc(-c3ccc(O)cc3O)s2)c1` [Compound 2], in data set [1], the “log kw C-18” value was 3 and the S is reported as −3.87. Besides, in data set [2], the chromatographic logD is 3.13.
On to `Oc1cc(O)c(-c2nnc(-c3ccc(OC(F)(F)F)cc3)s2)cc1Cl` [Compound 10], for which, in data set [1], the “log kw C-18” value is 3.734 and the S is −4.65. Also, in data set [2], the chromatographic logD is 4.12. The “retention, in words” value in data set [3] was “strongest retained”.
For `Oc1ccc(-c2nnc(-c3ccccc3F)s2)c(O)c1` [Compound 3], in data set [1], the “log kw C-18” value is 3.002 and the S was −3.885. For the same compound, the chromatographic logD in data set [2] is 3.13.
Regarding `O=[N+]([O-])c1cccc(-c2nnc(-c3ccc(O)cc3O)s2)c1` [Compound 9], in data set [1], the “log kw C-18” value was 2.512 and the S is reported as −3.432. Further, in data set [2], the chromatographic logD was 2.47. Further, the “retention, in words” value in data set [3] is given as “relatively low retention factor values”.
Consider `CC(=O)N1CCN(c2ccc(OCC3COC(Cn4ccnc4)(c4ccc(Cl)cc4Cl)O3)cc2)CC1` (stereo not shown) [ketoconazole, reference compound], for which, in data set [1], the “log kw C-18” value was 3.370.
Take `Oc1ccc(-c2nnc(-c3ccc(Cl)cc3Cl)s2)c(O)c1` [Compound 5]: in data set [1], the “log kw C-18” value is recorded as 3.678 and the S was −4.438. Also, the chromatographic logD in data set [2] is 4.05.
`Oc1ccc(-c2nnc(-c3ccccc3Cl)s2)c(O)c1` [Compound 4]: in data set [1], the “log kw C-18” value was 2.67 and the S is reported as −3.651. For the same compound, the chromatographic logD in data set [2] is 2.69.
On to `CCCCNc1nnc(-c2cc(Cl)c(O)cc2O)s1` [Compound 17], for which, in data set [1], the “log kw C-18” value is recorded as 2.78. Moreover, the chromatographic logD in data set [2] was 2.83.
As to `C[C@]12CCC(=O)C=C1CC[C@@H]1[C@@H]2[C@@H](O)C[C@@]2(C)[C@H]1CC[C@]2(O)C(=O)CO` [hydrocortisone, reference compound], the “log kw C-18” value in data set [1] was 2.210.
Same read-out and setting: the same measure for `Cn1c(=O)c2c(ncn2C)n(C)c1=O` [caffeine, reference compound]: 0.802.
Consider `Cc1ccc(Nc2nnc(-c3ccc(O)cc3O)s2)cc1` [Compound 12], for which, in data set [1], the “log kw C-18” value is given as 2.986 and the S is −4.168. Further, the chromatographic logD in data set [2] was 3.11.
As for `CCc1cc(-c2nnc(Nc3ccc(Cl)cc3)s2)c(O)cc1O` [Compound 14], in data set [1], the “log kw C-18” value is 4.296 and the S is listed as −5.335. For the same compound, the chromatographic logD in data set [2] is 4.88. Moreover, the “retention, in words” value in data set [3] is recorded as “strongest retained”.
For the compound `Oc1ccc(-c2nnc(-c3ccccc3)s2)c(O)c1` [Compound 1], in data set [1], the “log kw C-18” value was 2.537 and the S is on record as −3.494. The chromatographic logD in data set [2] was 2.51.
Regarding `O=C(CCCN1CCC(O)(c2ccc(Cl)cc2)CC1)c1ccc(F)cc1` [haloperidol, reference compound], the “log kw C-18” value in data set [1] is 3.012. The “log D(7.4) Bio Loom” value in data set [4] (standards used for calibration curve, BioLoom Database values taken from Andres et al. ref 44) is 2.92.
In the case of `c1ccc2ccccc2c1` [naphthalene, reference compound], the “log kw C-18” value in data set [1] is listed as 2.615. In addition, in data set [4] (pH 7.4), the “log D(7.4) Bio Loom” value is 3.3.
`CCN(CC)CC(=O)Nc1c(C)cccc1C` [lidocaine, reference compound]: the “log kw C-18” value in data set [1] was 2.079.
`COc1cc(-c2nnc(-c3ccc(O)cc3O)s2)ccc1O` [Compound 8]: in data set [1], the “log kw C-18” value is 2.545 and the S is −3.785. In addition, the chromatographic logD in data set [2] is 2.52. In data set [3], the “retention, in words” value was “relatively low retention factor values”.
For `Oc1ccc(-c2nnc(COc3ccc(OC(F)(F)F)cc3)s2)c(O)c1` [Compound 18], in that order: 2.879, −3.883, 2.97 and “strongest retained”.
The matching figures for `Oc1ccc(-c2nnc(-c3ccc(C(F)(F)F)cc3)s2)c(O)c1` [Compound 6]: 3.69, −4.696, 4.06 and “strongest retained”.
Regarding `Oc1ccc(-c2nnc(-c3ccc(O)c(O)c3)s2)c(O)c1` [Compound 7], in data set [1], the “log kw C-18” value is recorded as 1.907 and the S was −3.171. The chromatographic logD in data set [2] was 1.66. Further, the “retention / determined lipophilicity, in words” value in data set [3] (all investigated stationary phases except IAM) is “weakest retention”.
For `Oc1cc(O)c(-c2nnc(Nc3ccc(F)cc3)s2)cc1Cl` [Compound 13], in data set [1], the “log kw C-18” value was 3.005 and the S was −4.173. In addition, in data set [2], the chromatographic logD was 3.14.
